Values after ≈ are worked out from the molar mass of the structure shown. Marks after values point to notes of the source that are not given here. Non-standard residues stand in square brackets, D forms with d. Residues, ends and D or L forms follow the SMILES beside them. dPhe(3,4-F2) = N[C@H](Cc1ccc(F)c(F)c1)C(=O)O; d2Nal = N[C@H](Cc1ccc2ccccc2c1)C(=O)O
Columns and labels:
[1] = system: Pseudomonas aeruginosa ATCC 27853; test: Injectable formulations on mice infected with peritonitis; type: in vivo, ICR mice; settings: twice a day for 3 days; for Number of mice that died on each day after infection: day 1 / Number of mice that died on each day after infection: day 2 / Number of mice that died on each day after infection: day 3 / Number of mice that died on each day after infection: day 4 / Number of mice that died on each day after infection: day 5 / Average survival times (Days): n = 10; for Average survival times (Days): observed for 14 d
Description: Both female and male ICR mice were used in the test, half of the female and male mice were taken and randomly assigned into groups, with 10 mice in each group, and kept in separate cages. The mice were divided into a blank control group, a negative control group, a positive control Levofloxacin group, and AMPs LV-1 to LV-30 groups. A bacterial suspension of Pseudomonas aeruginosa ATCC 27853 was prepared, a concentration of the suspension was adjusted 1×10^9 CFU/mL for subsequent use. Except for the blank control group, all other mice were injected with the bacterial suspension (0.2 mL, 1×10^9 CFU/mL), into abdominal cavity of the mice, to establish a model. After the model was successfully established, the mice were given drug immediately according to their body weights. Except for the blank control group and the negative control group, the mice in all other groups were administered the corresponding injectable formulations via tail vein, twice a day for 3 consecutive days. The mice were then observed for 14 d. The death of mice in each group was observed, and survival time of the mice was recorded. Results of the effect of the injectable formulations of AMPs LV-1 to LV-30 on the survival time of mice infected with Pseudomonas aeruginosa are shown in Table 10.

[2] = system: carbapenem-resistant Escherichia coli (CREC); type: cell-based; settings: carbapenem-resistant (CREC)
From the text: (§1) According to the Standards of Clinical and Laboratory Standards Institute (CLSI) of the USA for antimicrobial drug susceptibility test operation standards, the micronutrient serial twofold dilution method was used further determine MICs of the antimicrobial peptides LV-1 to LV-30 against 5 clinically common drug-resistant bacterial strains. The experiment was repeated 5 times in parallel. […] The tested drug-resistant strains included Methicillin-resistant Staphylococcus aureus (MRSA), carbapenem-resistant Escherichia coli (CREC), vancomycin-resistant Enterococcus (VRE), carbapenem-resistant Pseudomonas aeruginosa (CRPA), and carbapenem-resistant Klebsiella pneumoniae (CRKP).

[3] = system: carbapenem-resistant Pseudomonas aeruginosa (CRPA); type: cell-based; settings: carbapenem-resistant (CRPA)
From the text: as §1

[4] = system: carbapenem-resistant Klebsiella pneumoniae (CRKP); type: cell-based; settings: carbapenem-resistant (CRKP)
From the text: as §1

[5] = system: vancomycin-resistant Enterococcus (VRE); type: cell-based
From the text: as §1

[6] = system: Methicillin-resistant Staphylococcus aureus (MRSA); type: cell-based; settings: Methicillin-resistant
From the text: as §1

rabbit red blood cells = type: cell-based; settings: red cells of rabbit, 1 h

SMILES	Number of mice that died on each day after infection: day 1 ([1]; 1 mg/kg via tail vein) [Mouse]	Number of mice that died on each day after infection: day 2 ([1]; 1 mg/kg via tail vein) [Mouse]	Number of mice that died on each day after infection: day 3 ([1]; 1 mg/kg via tail vein) [Mouse]	Number of mice that died on each day after infection: day 4 ([1]; 1 mg/kg via tail vein) [Mouse]	Number of mice that died on each day after infection: day 5 ([1]; 1 mg/kg via tail vein) [Mouse]	Average survival times (Days) ([1]; 1 mg/kg via tail vein)	MIC CREC [2] [µg/mL]	MIC CRPA [3] [µg/mL]	MIC CRKP [4] [µg/mL]	MIC VRE [5] [µg/mL]	MIC MRSA [6] [µg/mL]	MHC (minimum hemolytic concentration, lowest concentration causing 10% hemolysis) (rabbit red blood cells) [µg/mL]	other results
CC(=O)N[C@H](CCCNC(=N)N)C(=O)N[C@H](CCCNC(=N)N)C(=O)N[C@H](CC(C)C)C(=O)N[C@H](CC(C)C)C(=O)N[C@H](Cc1ccc2ccccc2c1)C(=O)N[C@H](CCCCN)C(=O)N[C@H](CC(C)C)C(=O)N[C@H](CCCCN)C(=O)N[C@H](Cc1ccc2ccccc2c1)C(=O)N[C@H](CCCCN)C(=O)N[C@H](CCCNC(=N)N)C(N)=O [LV-24] (Ac-[dR][dR][dL][dL][d2Nal][dK][dL][dK][d2Nal][dK][dR]-NH2)	1	2	0	0	1	9.4*** Days	8 (≈ 4.86 µM)	8 (≈ 4.86 µM)	4 (≈ 2.43 µM)	2 (≈ 1.21 µM)	4 (≈ 2.43 µM)	>1000	–
CC(=O)N[C@H](CCCNC(=N)N)C(=O)N[C@H](CCCCN)C(=O)N[C@@H](C(=O)N[C@@H](C(=O)N[C@H](Cc1ccc2ccccc2c1)C(=O)N[C@H](CCCNC(=N)N)C(=O)N[C@@H](C(=O)N[C@H](CCCCN)C(=O)N[C@H](Cc1ccc2ccccc2c1)C(=O)N[C@H](CCCNC(=N)N)C(=O)N[C@H](CCCCN)C(N)=O)C(C)C)C(C)C)C(C)C [LV-16] (Ac-[dR][dK][dV][dV][d2Nal][dR][dV][dK][d2Nal][dR][dK]-NH2)	2	1	1	1	0	8.1** Days	8 (≈ 4.99 µM)	8 (≈ 4.99 µM)	2 (≈ 1.25 µM)	2 (≈ 1.25 µM)	4 (≈ 2.49 µM)	>1000	–
CC(=O)N[C@H](CCCNC(=N)N)C(=O)N[C@H](CCCCN)C(=O)N[C@H](CC(C)C)C(=O)N[C@H](CC(C)C)C(=O)N[C@H](Cc1ccc(F)c(F)c1)C(=O)N[C@H](CCCCN)C(=O)N[C@H](CC(C)C)C(=O)N[C@H](CCCCN)C(=O)N[C@H](Cc1ccc(F)c(F)c1)C(=O)N[C@H](CCCCN)C(=O)N[C@H](CCCNC(=N)N)C(N)=O [LV-6] (Ac-[dR][dK][dL][dL][dPhe(3,4-F2)][dK][dL][dK][dPhe(3,4-F2)][dK][dR]-NH2)	1	1	0	1	0	10.5**** Days	2 (≈ 1.26 µM)	8 (≈ 5.03 µM)	8 (≈ 5.03 µM)	2 (≈ 1.26 µM)	4 (≈ 2.52 µM)	>1000	Number of mice that died on each day after infection: day 1 ([1]; 0.2 mg/kg via tail vein): 2 Mouse; Number of mice that died on each day after infection: day 2 ([1]; 0.2 mg/kg via tail vein): 2 Mouse; Number of mice that died on each day after infection: day 3 ([1]; 0.2 mg/kg via tail vein): 1 Mouse; Number of mice that died on each day after infection: day 4 ([1]; 0.2 mg/kg via tail vein): 0 Mouse; Number of mice that died on each day after infection: day 5 ([1]; 0.2 mg/kg via tail vein): 0 Mouse; Average survival times (Days) ([1]; 0.2 mg/kg via tail vein): 7.9** Days; Number of mice that died on each day after infection: day 1 ([1]; 5 mg/kg via tail vein): 1 Mouse; Number of mice that died on each day after infection: day 2 ([1]; 5 mg/kg via tail vein): 2 Mouse; Number of mice that died on each day after infection: day 3 ([1]; 5 mg/kg via tail vein): 1 Mouse; Number of mice that died on each day after infection: day 4 ([1]; 5 mg/kg via tail vein): 0 Mouse; Number of mice that died on each day after infection: day 5 ([1]; 5 mg/kg via tail vein): 0 Mouse; Average survival times (Days) ([1]; 5 mg/kg via tail vein): 9.2*** Days; survival time of mice infected with Pseudomonas aeruginosa ([1]; tail vein, observed 14 d): superior to those of the Levofloxacin group
